In publication PMC9266216, “Chemical Characterization, α-Glucosidase, α-Amylase and Lipase Inhibitory Properties of the Australian Honey Bee Propolis” (Foods, 2022):

Assays:
human salivary α-amylase = biological target: T1, human salivary α-amylase (Homo sapiens, UniProt P0DUB6); assay: α-amylase inhibition assay (CNP-G3, absorbance 405 nm); assay type: biochemical; settings: for IC50: 120 min incubation, pH 6.0, 37 °C
T1 construct: purchased Sigma Aldrich
T1 sequence (P0DUB6 16-511): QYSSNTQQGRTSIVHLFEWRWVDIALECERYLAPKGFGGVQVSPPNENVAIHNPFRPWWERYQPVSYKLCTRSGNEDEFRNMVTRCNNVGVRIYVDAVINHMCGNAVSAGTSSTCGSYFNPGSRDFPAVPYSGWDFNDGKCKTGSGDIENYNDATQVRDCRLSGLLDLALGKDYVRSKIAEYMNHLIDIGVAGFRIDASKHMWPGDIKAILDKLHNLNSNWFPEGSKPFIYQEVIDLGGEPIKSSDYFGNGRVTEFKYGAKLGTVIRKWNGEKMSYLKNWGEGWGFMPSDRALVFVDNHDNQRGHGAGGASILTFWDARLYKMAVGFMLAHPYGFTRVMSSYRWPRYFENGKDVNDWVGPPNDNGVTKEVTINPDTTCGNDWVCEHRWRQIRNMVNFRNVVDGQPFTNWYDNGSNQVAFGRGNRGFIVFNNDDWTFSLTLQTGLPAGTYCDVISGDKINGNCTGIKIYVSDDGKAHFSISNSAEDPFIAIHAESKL
Protocol: The α-amylase inhibition assay was performed in 96-well microtiter plates. In each well was added 10 μL of propolis sample dissolved in DMSO, and 90 μL of 0.1 M phosphate buffer adjusted to pH 6.0 using 2.0 M H3PO4. To the solution, 80 μL of human salivary α-amylase solution (2.0 U/mL) was added and incubated for approximately 10 min at 37 °C. The enzyme reaction was initiated by adding 20 μL of the substrate solution CNP-G3 (10 mM in phosphate buffer). […] The percentage inhibition was calculated using the same formula as described for the α-glucosidase inhibition assay.

porcine pancreas lipase = biological target: T2, porcine pancreas lipase (Sus scrofa, UniProt P00591); assay: lipase inhibition assay (p-NPB, absorbance 405 nm); assay type: biochemical; settings: for IC50: 60 min incubation, pH 7.4, 37 °C
T2 construct: purchased Sigma Aldrich
T2 sequence (P00591 1-450): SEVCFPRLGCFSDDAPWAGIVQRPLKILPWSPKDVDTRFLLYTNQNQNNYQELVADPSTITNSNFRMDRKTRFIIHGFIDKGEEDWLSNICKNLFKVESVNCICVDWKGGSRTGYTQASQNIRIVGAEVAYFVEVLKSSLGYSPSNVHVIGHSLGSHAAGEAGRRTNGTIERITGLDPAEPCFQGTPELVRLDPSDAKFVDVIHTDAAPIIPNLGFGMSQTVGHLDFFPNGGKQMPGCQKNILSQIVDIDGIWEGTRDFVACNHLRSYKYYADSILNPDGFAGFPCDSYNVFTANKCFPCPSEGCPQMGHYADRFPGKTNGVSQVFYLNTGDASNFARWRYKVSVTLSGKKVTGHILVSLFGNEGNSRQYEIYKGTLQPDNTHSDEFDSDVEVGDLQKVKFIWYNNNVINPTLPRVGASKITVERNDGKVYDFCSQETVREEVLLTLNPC
Protocol: The solvents used for extraction (ethanol—EtOH), HPLC (acetonitrile—MeCN), and LC–MS (MeCN and water—H2O) analyses were purchased from Merck. The ultra-pure water used for the HPLC analysis was from an in-house Milli-Q system.
The lipase inhibition assay was performed in 96-well microtiter plates. In each well was added 10 μL of propolis sample dissolved in DMSO and 155 μL of 0.1 M tris-HCl buffer adjusted to pH 7.4 using 1.0 M KOH. To the solution, 25 μL of lipase solution (2000 U/mL) was added and incubated for approximately 15 min at 37 °C. The enzyme reaction was initiated by adding 10 μL of the substrate solution p-NPB (100 mM in methanol). The colorimetric absorbance of the cleavage product after 60 min of incubation was measured at 405 nm, using the EnSpire microplate reader (Perkin Elmer). […] The percentage inhibition was calculated using the same formula as described for the α-glucosidase inhibition assay.

α-glucosidase = α-glucosidase (Saccharomyces cerevisiae, UniProt P53341); assay: biochemical; settings: read-out: α-Glucosidase inhibition
Protocol: The α-glucosidase inhibition assay was performed at room temperature in 96-well microtiter plates (Sigma Aldrich, Sydney, Australia). The assays were adapted from Zhao et al., with some modifications. Briefly, in each well was added 10 μL of propolis sample at 2 mg/mL in DMSO and 90 μL of 0.1 M phosphate buffer, adjusted to pH 7.5 using 0.6 M KOH. To the solution, 80 μL of α-glucosidase solution (2.0 U/mL) was added and incubated for 10 min at room temperature. The enzyme reaction was initiated by adding 20 μL of p-NPG solution (10 mM in phosphate buffer). The colorimetric absorbance of the cleavage product (the strongly chromogenic p-nitrophenolate ion) after 30 min of incubation was measured at 405 nm using the EnSpire microplate reader (Perkin Elmer, Boston, MA, USA). […] The results were analyzed and calculated in Microsoft Excel, and expressed using the mean for each of the triplicate sets. Inhibition of the enzyme was calculated as follows: Inhibition (%)=(1−Absorbance (sample)/Absorbance (blank) )×100%)

α-glucosidase, sequence (P53341 whole entry): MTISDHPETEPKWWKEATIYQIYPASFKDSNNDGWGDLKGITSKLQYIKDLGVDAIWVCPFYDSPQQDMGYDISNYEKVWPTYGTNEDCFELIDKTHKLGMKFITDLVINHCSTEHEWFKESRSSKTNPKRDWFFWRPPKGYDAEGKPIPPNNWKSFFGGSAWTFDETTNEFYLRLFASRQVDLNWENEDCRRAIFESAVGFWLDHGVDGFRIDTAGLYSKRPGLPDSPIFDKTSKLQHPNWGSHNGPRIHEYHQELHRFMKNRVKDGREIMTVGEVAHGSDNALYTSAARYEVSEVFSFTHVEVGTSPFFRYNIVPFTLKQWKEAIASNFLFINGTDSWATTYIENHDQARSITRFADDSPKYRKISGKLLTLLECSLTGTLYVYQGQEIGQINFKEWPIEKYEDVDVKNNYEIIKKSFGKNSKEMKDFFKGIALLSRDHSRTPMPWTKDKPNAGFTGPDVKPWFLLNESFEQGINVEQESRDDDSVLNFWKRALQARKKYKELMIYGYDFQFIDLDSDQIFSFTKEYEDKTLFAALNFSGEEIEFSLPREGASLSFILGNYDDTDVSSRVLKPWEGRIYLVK

Row | Compound | IC50 (human salivary α-amylase) [µM] | IC50 (porcine pancreas lipase) [µM] | inhibition at 83 µM (porcine pancreas lipase) [%] | inhibition at 250 µM (α-glucosidase) [%] | inhibition at 250 µM (human salivary α-amylase) [%]
1 | CC(C)=CCC/C(C)=C/Cc1c([C@@H]2CC(=O)c3c(cc(O)c(CC=C(C)C)c3O)O2)ccc(O)c1O [Compound 5, propolin G (Nymphaeol C)] | 246 | 43.4 | – | – | –
2 | CC(C)=CCC/C(C)=C/Cc1cc([C@@H]2CC(=O)c3c(O)cc(O)cc3O2)ccc1O [Compound 4, propolin H (3′-geranyl-naringenin)] | 52.5 | 33.1 | – | – | –
3 | CC(C)=CCC/C(C)=C/Cc1c(-c2oc3cc(O)cc(O)c3c(=O)c2O)ccc(O)c1O [Compound 6, solophenol D] | 142 | 32.3 | – | – | –
4 | O=c1c(O)c(-c2ccc(O)c(O)c2)oc2cc(O)cc(O)c12 [Compound 9, quercetin, reference compound] | 17.4 | – | 37 | – | –
5 | O=C1C[C@@H](c2ccc(O)c(O)c2)Oc2cc(O)cc(O)c21 [Compound 7, eriodictyol, reference compound] | – | – | 12 | 13 | 41
6 | O=C1C[C@@H](c2ccc(O)cc2)Oc2cc(O)cc(O)c21 [Compound 8, naringenin, reference compound] | 121 | – | 24 | 40 | 73

Second part, led by results:

Row | IC50 (human salivary α-amylase) [µM] | IC50 (porcine pancreas lipase) [µM] | Compound | inhibition at 83 µM (porcine pancreas lipase) [%] | inhibition at 250 µM (α-glucosidase) [%] | inhibition at 250 µM (human salivary α-amylase) [%]
7 | 135 | 53 | CC(C)=CCC/C(C)=C/Cc1cc([C@@H]2CC(=O)c3c(O)cc(O)cc3O2)cc(O)c1O [Compound 2, propolin F (Isonymphaeol B)] | – | – | –
8 | 205 | 51.8 | CC(C)=CCC/C(C)=C/Cc1c([C@@H]2CC(=O)c3c(O)cc(O)cc3O2)ccc(O)c1O [Compound 1, propolin D (Nymphaeol B)] | – | – | –
9 | 204 | 30.3 | CC(C)=CCC/C(C)=C/Cc1c(O)cc2c(c1O)C(=O)C[C@@H](c1ccc(O)c(O)c1)O2 [Compound 3, propolin C (Nymphaeol A)] | – | – | –
